In ChEMBL document CHEMBL2062392, “Structure-Activity Relationship for Thiirane-Based Gelatinase Inhibitors” (ACS Med Chem Lett, 2012):
Activity calls are given as the source filed them. No cut-off for these calls is given here.

Assays:
Liver = assay: Half life in rat liver S9 fraction at 10 uM by UPLC analysis; type: ADME, subcellular; details: s9, 10 µM
[1] = biological target: Matrix metalloproteinase-14 (Homo sapiens, UniProt P50281)
Description: Competitive inhibition of human MMP14 using fluorogenic substrate by Dixon plot analysis

Stromelysin-1 [2] = biological target: T1, Stromelysin-1 (Homo sapiens, UniProt P08254)
Target sequence in this assay (P08254 whole entry): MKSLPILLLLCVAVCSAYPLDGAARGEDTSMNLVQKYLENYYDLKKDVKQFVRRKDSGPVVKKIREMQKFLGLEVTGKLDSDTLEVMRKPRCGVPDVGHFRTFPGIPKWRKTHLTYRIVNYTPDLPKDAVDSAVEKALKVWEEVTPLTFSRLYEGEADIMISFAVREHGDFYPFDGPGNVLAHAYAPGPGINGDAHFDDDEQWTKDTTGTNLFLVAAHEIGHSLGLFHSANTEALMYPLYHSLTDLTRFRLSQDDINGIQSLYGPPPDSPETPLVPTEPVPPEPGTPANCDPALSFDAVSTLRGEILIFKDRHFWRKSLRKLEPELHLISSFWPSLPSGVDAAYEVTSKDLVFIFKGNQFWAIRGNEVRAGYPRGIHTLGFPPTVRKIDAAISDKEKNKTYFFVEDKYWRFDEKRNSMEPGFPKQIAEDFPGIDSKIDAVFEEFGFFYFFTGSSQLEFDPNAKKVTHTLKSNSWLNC
Description: Competitive inhibition of human MMP3 using fluorogenic substrate by Dixon plot analysis

[3] = biological target: T2, Interstitial collagenase (Homo sapiens) (UniProt P03956); assay: Competitive inhibition of human MMP1 using fluorogenic substrate at 20 uM by Dixon plot analysis
T2 sequence (whole entry): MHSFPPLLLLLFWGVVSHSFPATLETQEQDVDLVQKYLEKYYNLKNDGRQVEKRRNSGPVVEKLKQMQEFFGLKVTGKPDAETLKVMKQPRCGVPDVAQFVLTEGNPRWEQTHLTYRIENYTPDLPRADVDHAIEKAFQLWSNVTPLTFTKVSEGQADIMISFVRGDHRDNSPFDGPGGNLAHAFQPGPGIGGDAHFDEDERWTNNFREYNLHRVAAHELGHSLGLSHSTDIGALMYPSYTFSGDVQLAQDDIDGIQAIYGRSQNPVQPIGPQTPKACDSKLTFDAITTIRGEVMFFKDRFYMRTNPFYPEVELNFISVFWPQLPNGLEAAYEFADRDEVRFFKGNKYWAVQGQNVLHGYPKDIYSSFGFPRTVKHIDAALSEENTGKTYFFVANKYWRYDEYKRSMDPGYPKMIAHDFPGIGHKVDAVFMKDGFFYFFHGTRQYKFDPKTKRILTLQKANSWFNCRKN

[4] = biological target: 72 kDa type IV collagenase (Homo sapiens, UniProt P08253)
Description: Competitive inhibition of human MMP2 using fluorogenic substrate by Dixon plot analysis

Stromelysin-1 [5] = biological target: T1, Stromelysin-1; assay: Competitive inhibition of human MMP3 using fluorogenic substrate at 20 uM by Dixon plot analysis
Target sequence in this assay (P08254 100-477 limits assumed): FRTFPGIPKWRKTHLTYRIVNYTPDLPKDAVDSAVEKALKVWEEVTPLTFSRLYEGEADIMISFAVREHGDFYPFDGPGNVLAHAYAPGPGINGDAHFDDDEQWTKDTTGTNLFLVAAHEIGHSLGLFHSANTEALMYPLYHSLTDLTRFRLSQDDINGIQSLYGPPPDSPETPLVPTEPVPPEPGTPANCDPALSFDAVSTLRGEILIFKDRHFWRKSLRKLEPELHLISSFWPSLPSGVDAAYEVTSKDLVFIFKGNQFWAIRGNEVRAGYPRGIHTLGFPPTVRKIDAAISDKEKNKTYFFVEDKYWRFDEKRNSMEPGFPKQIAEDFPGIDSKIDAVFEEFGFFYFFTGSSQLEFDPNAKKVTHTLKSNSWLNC

[6] = biological target: Matrix metalloproteinase-9 (Homo sapiens, UniProt P14780)
Description: Competitive inhibition of human MMP9 using fluorogenic substrate by Dixon plot analysis

[7] = biological target: T3, Matrilysin (Homo sapiens) (UniProt P09237); assay: Competitive inhibition of human MMP7 using fluorogenic substrate at 20 uM by Dixon plot analysis
T3 sequence (whole entry): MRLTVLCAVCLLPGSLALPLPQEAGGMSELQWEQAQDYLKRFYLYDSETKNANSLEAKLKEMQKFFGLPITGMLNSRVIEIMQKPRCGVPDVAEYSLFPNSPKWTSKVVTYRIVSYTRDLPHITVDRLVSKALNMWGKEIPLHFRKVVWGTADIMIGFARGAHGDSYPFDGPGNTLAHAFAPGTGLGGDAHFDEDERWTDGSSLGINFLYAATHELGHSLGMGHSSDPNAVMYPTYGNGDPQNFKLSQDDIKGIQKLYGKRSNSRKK

[8] = biological target: T3, Matrilysin (Homo sapiens); assay: Competitive inhibition of human MMP7 using fluorogenic substrate at 125 uM by Dixon plot analysis
[9] = biological target: T2, Interstitial collagenase (Homo sapiens); assay: Competitive inhibition of human MMP1 using fluorogenic substrate at 100 uM by Dixon plot analysis
Stromelysin-1 [10] = biological target: T1, Stromelysin-1; assay: Competitive inhibition of human MMP3 using fluorogenic substrate at 60 uM by Dixon plot analysis
Target sequence in this assay (P08254 100-477 limits assumed): as the sequence (P08254 100-477 limits assumed) above

[11] = biological target: T2, Interstitial collagenase (Homo sapiens); assay: Competitive inhibition of human MMP1 using fluorogenic substrate at 60 uM by Dixon plot analysis
[12] = biological target: T3, Matrilysin (Homo sapiens); assay: Competitive inhibition of human MMP7 using fluorogenic substrate at 10 uM by Dixon plot analysis
Matrilysin = biological target: T4, Matrilysin (Homo sapiens, UniProt P09237)
T4 sequence (P09237 whole entry): T3 sequence (whole entry)
Description: Competitive inhibition of human MMP7 using fluorogenic substrate by Dixon plot analysis

Liver microsomes [13] = assay: Drug metabolism in rat liver microsomes assessed as 4-(4-(thiiran-2-ylmethylsulfonyl)phenoxy)benzaldehyde formation at 50 uM after 15 mins by tandem MS analysis; type: ADME, Microsome; details: 0.25 h
Liver microsomes [14] = assay: Drug metabolism in rat liver microsomes assessed as 4-(4-(hydroxymethyl)phenoxy)benzenesulfinic acid formation at 50 uM after 15 mins by tandem MS analysis; type: ADME, Microsome; details: 0.25 h
Liver microsomes [15] = assay: Drug metabolism in rat liver microsomes assessed as 4-(4-(thiiran-2-ylmethylsulfonyl)phenoxy)benzoic acid formation at 50 uM after 15 mins by tandem MS analysis; type: ADME, Microsome; details: 0.25 h
Interstitial collagenase = biological target: T5, Interstitial collagenase (Homo sapiens, UniProt P03956)
T5 sequence (P03956 whole entry): T2 sequence (whole entry)
Description: Competitive inhibition of human MMP1 using fluorogenic substrate by Dixon plot analysis

[16] = biological target: T2, Interstitial collagenase (Homo sapiens); assay: Competitive inhibition of human MMP1 using fluorogenic substrate at 50 uM by Dixon plot analysis
[17] = biological target: T3, Matrilysin (Homo sapiens); assay: Competitive inhibition of human MMP7 using fluorogenic substrate at 75 uM by Dixon plot analysis

Sequence of 72 kDa type IV collagenase (P08253 whole entry): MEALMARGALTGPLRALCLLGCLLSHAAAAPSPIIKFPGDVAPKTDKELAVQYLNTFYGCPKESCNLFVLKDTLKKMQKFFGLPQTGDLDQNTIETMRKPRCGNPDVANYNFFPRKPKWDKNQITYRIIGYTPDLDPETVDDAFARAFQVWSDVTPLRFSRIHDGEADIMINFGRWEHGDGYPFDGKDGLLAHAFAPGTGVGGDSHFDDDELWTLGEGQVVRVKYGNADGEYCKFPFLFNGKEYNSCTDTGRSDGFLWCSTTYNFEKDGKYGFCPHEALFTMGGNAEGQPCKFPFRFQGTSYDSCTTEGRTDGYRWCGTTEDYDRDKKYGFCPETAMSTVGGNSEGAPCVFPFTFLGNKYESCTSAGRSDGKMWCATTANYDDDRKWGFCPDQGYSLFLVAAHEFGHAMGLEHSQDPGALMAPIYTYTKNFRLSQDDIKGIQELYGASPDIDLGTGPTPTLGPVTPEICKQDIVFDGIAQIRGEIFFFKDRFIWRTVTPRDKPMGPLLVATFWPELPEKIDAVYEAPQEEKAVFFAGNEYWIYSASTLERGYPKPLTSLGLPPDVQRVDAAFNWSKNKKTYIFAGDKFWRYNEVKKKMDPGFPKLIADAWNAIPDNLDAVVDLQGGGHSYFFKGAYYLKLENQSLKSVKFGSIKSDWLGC
Sequence of Matrix metalloproteinase-9 (P14780 whole entry): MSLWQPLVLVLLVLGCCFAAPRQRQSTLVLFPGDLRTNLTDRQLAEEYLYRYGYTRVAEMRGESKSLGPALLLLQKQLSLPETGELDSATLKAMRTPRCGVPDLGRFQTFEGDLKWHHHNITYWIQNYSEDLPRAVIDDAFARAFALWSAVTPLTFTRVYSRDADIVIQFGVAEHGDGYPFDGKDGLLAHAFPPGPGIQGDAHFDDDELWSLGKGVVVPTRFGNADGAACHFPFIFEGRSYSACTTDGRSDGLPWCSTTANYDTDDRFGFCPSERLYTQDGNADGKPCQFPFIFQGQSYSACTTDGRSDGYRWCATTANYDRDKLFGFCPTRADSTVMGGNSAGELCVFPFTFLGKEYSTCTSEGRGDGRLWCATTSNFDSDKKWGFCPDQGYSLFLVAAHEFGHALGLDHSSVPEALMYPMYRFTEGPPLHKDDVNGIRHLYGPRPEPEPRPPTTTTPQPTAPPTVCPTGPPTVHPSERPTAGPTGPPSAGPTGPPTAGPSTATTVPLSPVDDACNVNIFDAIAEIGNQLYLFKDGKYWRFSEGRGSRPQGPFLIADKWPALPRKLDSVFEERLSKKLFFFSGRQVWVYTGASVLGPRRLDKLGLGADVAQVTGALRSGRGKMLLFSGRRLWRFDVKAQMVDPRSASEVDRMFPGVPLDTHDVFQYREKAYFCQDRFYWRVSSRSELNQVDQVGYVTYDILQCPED

SMILES | t1/2 (Liver) [min] | Ki [1] [nM] | Ki (Stromelysin-1 [2]) [nM] | Ki [4] [nM] | Ki [6] [nM] | inhibition [7] | further results
O=S(=O)(CC1CS1)c1ccc(Oc2ccccc2)cc1 (stereo not given) | 4.4 | 37 |  |  |  |  | 
CS(=O)(=O)Oc1ccc(Oc2ccc(S(=O)(=O)CC3CS3)cc2)cc1 (racemic) | 27 |  | 575 |  |  |  | 
O=S(=O)(CC1CS1)c1ccc(Oc2ccc(F)cc2)cc1 (racemic) | 3.7 | 580 |  | 61 | 44 | 9% | inhibition [3]: inactive; inhibition (Stromelysin-1 [5]): 50%
O=S(=O)(CC1CS1)c1ccc(Oc2cccc(F)c2)cc1 (racemic) | 2.9 | 190 | 27000 | 450 | 3000 |  | inhibition [8]: inactive; inhibition [9]: 7%
O=S(=O)(CC1CS1)c1ccc(Oc2ccc(I)cc2)cc1 (racemic) | 7.2 |  |  | 600 | 290 |  | inhibition (Stromelysin-1 [10]): 18%; inhibition [11]: inactive; inhibition [12]: inactive
O=S(=O)(CC1CS1)c1ccc(Oc2ccc(CO)cc2)cc1 (racemic) | 13 | 215 | 4100 | 78 | 390 |  | Ki (Matrilysin): 48500 nM; Drug metabolism (Liver microsomes [13]): Active; Drug metabolism (Liver microsomes [14]): Active; Drug metabolism (Liver microsomes [15]): Active; Ki (Interstitial collagenase): 205000 nM
O=S(=O)(CC1CS1)c1ccc(Oc2ccc(O)cc2)cc1 (racemic) | 23 | 90 | 2200 | 6 |  |  | Ki (Matrilysin): 31000 nM; Ki (Interstitial collagenase): 128000 nM
CC(C)Oc1ccc(Oc2ccc(S(=O)(=O)CC3CS3)cc2)cc1 (racemic) |  | 280 | 17000 | 300 | 470 | 30% | inhibition [16]: 11%
COCOc1ccc(Oc2ccc(S(=O)(=O)CC3CS3)cc2)cc1 (racemic) | 7.7 | 140 | 12000 | 180 | 160 |  | inhibition [9]: 6%; inhibition [17]: 19%
O=S(=O)(CC1CS1)c1ccc(Oc2ccc(OC(F)(F)F)cc2)cc1 (racemic) | 7.3 | 5080 |  | 110 | 930 | inactive | inhibition [3]: 3%; inhibition (Stromelysin-1 [5]): 14%
